# Assay results reported in patent US20080089859A1, “ADMINISTRATION OF SLEEP RESTORATIVE AGENTS” (priority 2001, published 2008).
# Legend:
# [1] = test system: rheumatoid arthritis (Ra) and Psoriatic arthritis (PsA) patients; test: Study of Example 1 continued to 18 months (Example 2); format: in vivo, human; conditions: for Response of improved patients after adding the agent to their treatment: 12 month to 18 month time point, on Etanercept
# From the text: The study of Example 1 was continued to 18 months. […] Fibromyalgia was a surrogate for a lack of deep (e.g., stage IV) restorative sleep.
# JC refers to the number of swollen tender joints.
# [2] = test system: patients with Behcet's Syndrome; test: Treatment of patients with Behcet's Syndrome; format: in vivo, human; conditions: for Symptoms observed in the patient: second patient (pramipexole added to lorazepam), third patient (clonazepam 2 mg qhs); for Discontinuation of prednisone: single patients, lorazepam 2 mg qhs (patient 1), pramipexole added to lorazepam (patient 2), clonazepam 2 mg qhs (patient 3)
# Procedure: Three patients with Behcet's Syndrome were treated according to the present invention. For one patient, prednisone administration was supplemented with lorazepam at 2 mg qhs. […] For a second patient, lorazepam at 2 mg qhs was co-admnistered with Dapsone and prednisone.
# [3] = test system: patients with Palindromic Rheumatism; test: Treatment of patients with Palindromic Rheumatism; format: in vivo, human; conditions: five patients; clonazepam 2 mg, pramipexole 1-6 mg and/or lorazepam 2 mg qhs
# Procedure: Five patient with Palindromic Rheumatism were treated according to the present invention. After adding clonazepam 2 mg, pramipexole 1-6 mg and/or lorazepam 2 mg qhs to their treatment, the patients reported that episodic severe pain decreased dramatically, by 90%.
# [4] = test system: patients having rheumatoid arthritis; test: Rheumatoid arthritis patients on Leflunamide given sleep restorative agents; format: in vivo, human; conditions: lorazepam, clonazepam and/or pramipexole
# [5] = test system: patients with Sjogren's Syndrome; test: Treatment of patients with dry eyes and mouth from Sjogren's Syndrome; format: in vivo, human; conditions: Lorazepam 1-2 mg po qhs, Pramipexole later 0.5-4.0 mg qhs; for Resolution of dryness (eyes and mouth): 3 patients on Hydroxychloroquine 200 mg po bid, nearly complete resolution in third patient; for Hydroxychloroquine sparing: 3 patients
# Procedure: Three patients with dry eyes and mouth from Sjogren's Syndrome, were treated with lorazepam or pramipexole. […] Lorazepam was administered at 1-2 mg po qhs. Pramipexole was later administered at 0.5-4.0 mg qhs.
# [6] = test system: patients with Ankylosing Spondylitis; test: Treatment of patients with Ankylosing Spondylitis; format: in vivo, human; conditions: six patients on Methotrexate, steroids 2-10 mg qd and Etanercept; lorazepam 1-2 mg qhs or pramipexole 0.5-3.0 mg qhs
# Procedure: Six patients with Ankylosing Spondylitis were treated according to the present invention. […] The patients were administered lorazepam 1-2 mg qhs or pramipexole 0.5-3.0 mg qhs.
# [7] = test system: patients with Systemic Lupus Erythematosis; test: Treatment of patients with Systemic Lupus Erythematosis; format: in vivo, human
# Procedure: Patients with Systemic Lupus Erythematosis were treated according to the present invention.
# The dose range of pramipexole ranged from 2-6 mg qhs.
# [8] = test system: patient with chronic gout; test: Treatment of a patient with chronic gout and severe synovitis; format: in vivo, human; conditions: for Discontinuation of other medications / Prednisone dose reached: one patient; for Discontinuation of other medications: pramipexole and lorazepam added together; for Prednisone dose reached: colchicine, hydroxychloroquine and Etanercept added together, before sleep agents
# Procedure: Adding colchicine, hydroxychloroquine and Etanercept only allowed them to decrease prednisone to 15 mg qd.
# patient with pseudogout = test: Treatment of a patient with pseudogout; format: in vivo, human; conditions: one patient on colchicine; lorazepam 2 mg qhs added for sleep
# [9] = test system: patients with Multiple Sclerosis (MS); conditions: for MS activity: three patients, pramipexole and/or lorazepam added; for Tolerability: human, in vivo
# Procedure: Eight patients with Multiple Sclerosis (MS) were treated according to the present invention.
# [10] = test system: patients having rheumatoid arthritis; test: Rheumatoid arthritis patients on Infliximab given sleep restorative agents; format: in vivo, human; conditions: lorazepam 1-2 mg qhs or pramipexole
# [11] = test system: patient with ocular and articular Sarcoidosis; conditions: one patient steroid-dependent for two years; Pramipexole to 3 mg qhs
# From the text: A patient with ocular and articular Sarcoidosis was steroid-dependent for two years.
# [12] = test system: patient with Reiter's Syndrome; conditions: one patient on Etanercept; pramipexole up to 4 mg qhs
# [13] = test system: patients having rheumatoid arthritis; test: Rheumatoid arthritis patients on prednisone given Ropinirole; format: in vivo, human; conditions: Ropinirole 2-20 mg qhs
smiles,measurement,setting,value
O=C1CN=C(c2ccccc2Cl)c2cc([N+](=O)[O-])ccc2N1 [Clonazepam],Response of improved patients after adding the agent to their treatment,[1],did much better from the 12 month time point to the 18 month time point
same,Symptoms observed in the patient,[2],less fatigue and no further mouth ulcers were observed
same,Discontinuation of prednisone,[2],able to discontinue prednisone 10 mg qd
same,Decrease of episodic severe pain,[3],90%
same,Other medications stopped,[3],"off narcotics, steroids, Etanercept, Infliximab, leflunamide, Azothioprine, sulfasalazine, hydroxychloroquine and colchicine"
same,Leflunamide efficacy,[4],increased Leflunamide efficacy
O=C1Nc2ccc(Cl)cc2C(c2ccccc2Cl)=NC1O (stereo not shown) [Lorazepam],Response of improved patients after adding the agent to their treatment,[1],did much better from the 12 month time point to the 18 month time point
same,Resolution of dryness (eyes and mouth),[5],Complete resolution of the dryness in 2 of 3 patients
same,Hydroxychloroquine sparing,[5],One daily dose of Hydroxychloroquine was discontinued and benefit maintained
same,Discontinuation of Dapsone,"[2]; second patient, lorazepam 2 mg qhs with Dapsone and prednisone",Dapsone could be discontinued without further seizures
same,Discontinuation of prednisone,[2],able to d/c prednisone in two months
same,Discontinuation of Methotrexate and steroids,[6],All six patients were able to discontinue Methotrexate and steroids
same,Prednisone dose reached,"[7]; patient steroid-dependent at 20 mg qd on leflunamide, lorazepam 2 mg qhs added",15 mg qhs
same,Decrease of episodic severe pain,[3],90%
same,Other medications stopped,[3],"off narcotics, steroids, Etanercept, Infliximab, leflunamide, Azothioprine, sulfasalazine, hydroxychloroquine and colchicine"
same,Discontinuation of other medications,[8],"allowed the patient to discontinue steroids, colchicine, hydroxychoroquine, and narcotics"
same,Flares,patient with pseudogout,no flares for three years
same,Sleep and fibromyalgia,"[9]; one patient flaring uncontrollably, Lorazepam 2 mg qhs",still exhibited poor sleep and fibromyalgia
same,MS activity,[9],MS was quiet for over three years
same,Leflunamide efficacy,[4],increased Leflunamide efficacy
same,Infliximab efficacy,[10],increased efficacy of Infliximab
"CCCNC1CCc2nc(N)sc2C1 (stereo not shown) [Pramipexole, 2-amino-4,5,6,7-tetrahydro-6-(propylamino)benzo-thiazole]",Response of improved patients after adding the agent to their treatment,[1],did much better from the 12 month time point to the 18 month time point
same,Expected prednisone discontinuation after conversion back to inactive FM,"[1]; one patient who developed FM and needs prednisone 10 mg qd, planned treatment",expected to allow them to discontinue prednisone
same,Resolution of dryness (eyes and mouth),[5],Complete resolution of the dryness in 2 of 3 patients
same,Hydroxychloroquine sparing,[5],One daily dose of Hydroxychloroquine was discontinued and benefit maintained
same,Symptoms observed in the patient,[2],"No fatigue, mouth ulcers, skin vasculitis, hoarse voice or seizures were observed"
same,Discontinuation of prednisone,[2],prednisone 5 mg qd could be discontinued
same,Discontinuation of Methotrexate and steroids,[6],All six patients were able to discontinue Methotrexate and steroids
same,Decrease or d/c of prednisone,"[7]; 8 patients, pramipexole 2-6 mg qhs",80%
same,Prednisone dose reached,"[7]; person with life threatening leukopenia, steroids 60 mg qd before, Pramipexole increased to 3.5 mg q hs over 3 months",5 mg qd
same,Symptoms noted,[7]; same patient after pramipexole 3-4.5 mg qhs,"much less fatigue, anemia, joint pain, and had stable kidney function"
same,Prednisone dose reached,"[7]; same patient, pramipexole 3-4.5 mg qhs added, first time in 7 years",5 mg qd
same,Complete blood count,"[7]; same person, after Pramipexole",maintaining normal complete blood count
same,Decrease of steroids with disease still controlled,[11],90%
same,Decrease of episodic severe pain,[3],90%
same,Other medications stopped,[3],"off narcotics, steroids, Etanercept, Infliximab, leflunamide, Azothioprine, sulfasalazine, hydroxychloroquine and colchicine"
same,Discontinuation of other medications,[8],"allowed the patient to discontinue steroids, colchicine, hydroxychoroquine, and narcotics"
same,Tolerability,[9],intolerant
same,MS activity,[9],MS was quiet for over three years
same,Leflunamide efficacy,[4],increased Leflunamide efficacy
same,Infliximab efficacy,[10],increased efficacy of Infliximab
same,Discontinuation of other medications,[12],"able to discontinue methotrexate, steroids 5-10 mg qd, and narcotics"
same,Response of dactylitis and synovitis,[12],dactylitis and synovitis responded better to Etanercept
"CCCN(CCC)CCc1cccc2c1CC(=O)N2.Cl [Ropinirole, 4-[2-(dipropylamino)-ethyl]-1,3-dihydro-2H-indol-2-one mono hydrochloride]",Tolerability,[9],intolerant
same,Prednisone dose,[13],able to lower their prednisone doses
COc1cc2c(c(OC)c1OC)-c1ccc(OC)c(=O)cc1[C@@H](NC(C)=O)CC2 [colchicine],Prednisone dose reached,[8],15 mg qd
same,Flares,patient with pseudogout,flare ups were previously uncontrolled
CCN(CCO)CCCC(C)Nc1ccnc2cc(Cl)ccc12 (stereo not shown) [hydroxychloroquine],Prednisone dose reached,[8],15 mg qd
C[C@]12C=CC(=O)C=C1CC[C@@H]1[C@@H]2C(=O)C[C@@]2(C)[C@H]1CC[C@]2(O)C(=O)CO [prednisone],Control of severe synovitis,[8]; prednisone 10-40 mg qd for two months,uncontrolled
